Test results from patent US20100144854A1 (priority 2007, published 2010).

How the values were obtained:
[1] = test system: Recurring cancer of the right ovary; experiment: Example 8: patient with recurring ovarian cancer treated with rhodamine 6G enema; assay type: in vivo, human; settings: Patient T, 52; third day after start; enema 5 g per day
Protocol: In connection with the detection of carcinoma of the left ovary the patient underwent a hysterectomy.
After the operation the patient was given a 2-year course of chemotherapy. The patient subsequently complained of pain in the rectum and tenesmus.
Diagnosis: Recurring cancer of the right ovary.
In view of the ineffectiveness of continuing the chemotherapy, the patient was treated with the preparation in the form of an enema.

[2] = test system: adenocarcinoma of the large intestine; experiment: Example 6: patient with large intestine adenocarcinoma and liver metastases treated with rhodamine 6G; assay type: in vivo, human; design: Nuclear segments / Lymphocytes (line r11) / Erythrocytes / Hemoglobin / Thrombocytes / Leukocytes / Amylase / Chlorine / Serum iron / Cholesterol / Total bilirubin / Bilirubin (line r8, above 'direct'): unit not given here; settings: for Erythrocytes / Hemoglobin / Leukocytes / Thrombocytes / Eosinophils / Cholesterol / Monocytes / Total bilirubin / Potassium / ALT / AST / Bilirubin (line r8, above 'direct') / Serum iron / Lymphocytes (line r11) / Nuclear segments / Total protein / Creatinine / Amylase / Chlorine / Indirect bilirubin fraction / direct (line r9) / indirect (line r11) / Basophils / Nuclear rods: Example 6, Patient N; for Eosinophils: normal 0-5; for Cholesterol: normal 1.66-8.3; for Monocytes: normal 2-9%; for Total bilirubin: normal 2.90-6.54; for Potassium: normal 3.5-6.0; for ALT / AST: normal 5-40; for Bilirubin (line r8, above 'direct'): normal 8.5-20.5; for Serum iron: normal 8.8-27.0; for Lymphocytes (line r11): normal 18-; for Nuclear segments: normal 45-70; for Total protein: normal 65.0-80; for Creatinine: normal 85.0; for Amylase: normal 95-110.0; for Chlorine: normal 135.0-; for Indirect bilirubin fraction / direct (line r9): normal to 25%; for indirect (line r11): normal to 100; for Basophils: normal 0-1%; for Nuclear rods: normal 1-6%
Protocol: Patient N. Diagnosis: adenocarcinoma of the large intestine. Metastases in the liver. Ascites. Three years previously a resection of the large intestine was performed with insertion of an anastomosis end to end. A full course of polychemo-therapy was given. Two years after the treatment the patient complained of pain in the bottom of the abdomen and tenesmus. The patient presented complaining of acute weakness, constant pain in the abdomen, coughing, dyspnea, ascites, retention of stools. Patient's condition serious, loss of appetite, pale cyanosed skin, abdomen with signs of ascites. […] A lump of irregular shape 2×4 cm in size with irregular edges was detected by computerized tomography in the right renal lobe. A large lump 4×5.4 cm in size and free liquid in the peritoneal cavity were also detected. […] The infusions were administered weekly over the course of 3 months. […] The enemas were administered three times a week over the course of 2 months. […] In the third week of treatment the dyspnea was less severe. In the course of treatment the tumor in the region of the anastomosis decreased in size to 0.2×0.3 cm. After 3 months the treatment was discontinued for 1 month, and was then resumed for a further 2 months.

[3] = Tolerability on use in a wide range of dosages; assay type: in vivo; settings: used in a wide range of dosages
[4] = Patient N, over the course of the treatment (3 months, 1 month pause, 2 months)

9-(2-ethoxycarbonyl)phenyl)-3,6-bis(ethylamino)2,7-dimethylxanthyl chloride [rhodamine 6G]
severity of the pain [1]: decreased | Erythrocytes ([2]; 09 Dec. 2004): 4.44 | Hemoglobin ([2]; 09 Dec. 2004): 115 | Leukocytes ([2]; 09 Dec. 2004): 5.2 | Thrombocytes ([2]; 09 Dec. 2004): 326 | Eosinophils ([2]; 09 Dec. 2004): 2 | Cholesterol ([2]; 09 Dec. 2004): 5.75 | Monocytes ([2]; 09 Dec. 2004): 10% | Total bilirubin ([2]; 09 Dec. 2004): 8.4 | Potassium ([2]; 09 Dec. 2004): 2.28 | ALT ([2]; 09 Dec. 2004): 69.2 el | AST ([2]; 09 Dec. 2004): 45.7 el | Bilirubin (line r8, above 'direct') ([2]; 09 Dec. 2004): 3.3 | Serum iron ([2]; 09 Dec. 2004): 54.8 | Lymphocytes (line r11) ([2]; 09 Dec. 2004): 58 | Nuclear segments ([2]; 09 Dec. 2004): 6 | Total protein ([2]; 09 Dec. 2004): 65 g/L | Creatinine ([2]; 09 Dec. 2004): 74 µM | Amylase ([2]; 09 Dec. 2004): 102.8 | Chlorine ([2]; 09 Dec. 2004): 114.31 | Indirect bilirubin fraction ([2]; 09 Dec. 2004): 84% | direct (line r9) ([2]; 09 Dec. 2004): 5.1% | indirect (line r11) ([2]; 09 Dec. 2004): 89 el | Erythrocytes ([2]; 09 Jan. 2005): 4.87 | Hemoglobin ([2]; 09 Jan. 2005): 128 | Leukocytes ([2]; 09 Jan. 2005): 5.3 | Thrombocytes ([2]; 09 Jan. 2005): 440 | Basophils ([2]; 09 Jan. 2005): 1% | Eosinophils ([2]; 09 Jan. 2005): 1 | Nuclear rods ([2]; 09 Jan. 2005): 2% | Cholesterol ([2]; 09 Jan. 2005): 7.03 | Monocytes ([2]; 09 Jan. 2005): 12% | Total bilirubin ([2]; 09 Jan. 2005): 8.0 | Potassium ([2]; 09 Jan. 2005): 2.15 | ALT ([2]; 09 Jan. 2005): 79 el | AST ([2]; 09 Jan. 2005): 29.5 el | Bilirubin (line r8, above 'direct') ([2]; 09 Jan. 2005): 2.0 | Serum iron ([2]; 09 Jan. 2005): 42.9 | Lymphocytes (line r11) ([2]; 09 Jan. 2005): 69 | Nuclear segments ([2]; 09 Jan. 2005): 5 | Total protein ([2]; 09 Jan. 2005): 82.53 g/L | Creatinine ([2]; 09 Jan. 2005): 69 µM | Amylase ([2]; 09 Jan. 2005): 110.0 | Chlorine ([2]; 09 Jan. 2005): 134.2 | Indirect bilirubin fraction ([2]; 09 Jan. 2005): 90% | direct (line r9) ([2]; 09 Jan. 2005): 6.0% | indirect (line r11) ([2]; 09 Jan. 2005): 78.0 el | Erythrocytes ([2]; 9 Oct. 2004): 3.20 | Hemoglobin ([2]; 9 Oct. 2004): 74 | Leukocytes ([2]; 9 Oct. 2004): 9.2 | Thrombocytes ([2]; 9 Oct. 2004): 120 | Basophils ([2]; 9 Oct. 2004): 1% | Eosinophils ([2]; 9 Oct. 2004): 1 | Nuclear rods ([2]; 9 Oct. 2004): 0% | Cholesterol ([2]; 09 Oct. 2004): 6.21 | Monocytes ([2]; 9 Oct. 2004): 36% | Total bilirubin ([2]; 09 Oct. 2004): 11.0 | Potassium ([2]; 09 Oct. 2004): 2.72 | ALT ([2]; 09 Oct. 2004): 465.8 el | AST ([2]; 09 Oct. 2004): 265.7 el | Bilirubin (line r8, above 'direct') ([2]; 09 Oct. 2004): 3.0 | Serum iron ([2]; 09 Oct. 2004): 190.4 | Lymphocytes (line r11) ([2]; 9 Oct. 2004): 35 | Nuclear segments ([2]; 9 Oct. 2004): 2 | Total protein ([2]; 09 Oct. 2004): 51.23 g/L | Creatinine ([2]; 09 Oct. 2004): 118 µM | Amylase ([2]; 09 Oct. 2004): 114.0 | Chlorine ([2]; 09 Oct. 2004): 114.20 | Indirect bilirubin fraction ([2]; 09 Oct. 2004): 82% | direct (line r9) ([2]; 09 Oct. 2004): 8.0% | indirect (line r11) ([2]; 09 Oct. 2004): 107.2 el | Cholesterol ([2]; 24. Nov. 2004): 5.62 | Total bilirubin ([2]; 24. Nov. 2004): 24.2 | Potassium ([2]; 24. Nov. 2004): 2.32 | ALT ([2]; 24. Nov. 2004): 326 el | AST ([2]; 24. Nov. 2004): 125.8 el | Bilirubin (line r8, above 'direct') ([2]; 24. Nov. 2004): 22.3 | Serum iron ([2]; 24. Nov. 2004): 104.7 | Total protein ([2]; 24. Nov. 2004): 62.26 g/L | Creatinine ([2]; 24. Nov. 2004): 89 µM | Amylase ([2]; 24. Nov. 2004): 140 | Chlorine ([2]; 24. Nov. 2004): 115.3 | Indirect bilirubin fraction ([2]; 24. Nov. 2004): 96% | direct (line r9) ([2]; 24. Nov. 2004): 11.9% | indirect (line r11) ([2]; 24. Nov. 2004): 102 el | Erythrocytes ([2]; 24 Nov. 2004): 3.84 | Hemoglobin ([2]; 24 Nov. 2004): 90 | Leukocytes ([2]; 24 Nov. 2004): 12.0 | Thrombocytes ([2]; 24 Nov. 2004): 210 | Eosinophils ([2]; 24 Nov. 2004): 2 | Nuclear rods ([2]; 24 Nov. 2004): 1% | Monocytes ([2]; 24 Nov. 2004): 12% | Lymphocytes (line r11) ([2]; 24 Nov. 2004): 49 | Nuclear segments ([2]; 24 Nov. 2004): 6 | feeling of pain ([2]; Patient N, 55, ten days after start, i.v. infusions, enemas, oral solution): completely disappeared | body weight ([2]; Patient N, after treatment): Weight regained | blood indices ([2]; Patient N, during treatment): marked step-wise improvement | symptoms complained of ([2]; Patient N, in 2 years): no symptoms | metastases in the liver [2, 4]: no metastases were detected | tumor in the region of the anastomosis [2, 4]: no tumor was detected | dyspnea ([2]; Patient N, third week of treatment): less severe | allergic reactions or other side effects [3]: does not produce any allergic reactions or other side effects
